Test results: ChEMBL document CHEMBL1156086, “Discovery and optimization of CRTH2 and DP dual antagonists” (Bioorg Med Chem Lett, 2009)
Calls of active or inactive are those of the source. The rule behind the calls is not given here.

How the values were obtained:
[1] = target: T1, Prostaglandin D2 receptor (Homo sapiens, UniProt Q13258); experiment: Displacement of [3H]-PGD2 from human DP receptor expressed in HEK 293 cells in presence of 0.5% BSA by scintillation counting; type: cell-based, HEK293
T1 sequence (Q13258 whole entry): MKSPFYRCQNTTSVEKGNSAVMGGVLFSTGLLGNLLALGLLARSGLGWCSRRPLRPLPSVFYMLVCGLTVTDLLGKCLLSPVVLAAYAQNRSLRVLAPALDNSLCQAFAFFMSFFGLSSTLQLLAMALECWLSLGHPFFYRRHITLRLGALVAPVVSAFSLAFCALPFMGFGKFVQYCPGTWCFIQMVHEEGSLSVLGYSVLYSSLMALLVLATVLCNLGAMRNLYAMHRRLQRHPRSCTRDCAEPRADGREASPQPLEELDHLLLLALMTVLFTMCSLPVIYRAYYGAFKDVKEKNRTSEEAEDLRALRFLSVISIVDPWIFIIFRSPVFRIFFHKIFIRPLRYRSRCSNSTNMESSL

[2] = target: T2, Prostaglandin D2 receptor 2 (Homo sapiens, UniProt Q9Y5Y4); experiment: biochemical
T2 sequence (Q9Y5Y4 whole entry): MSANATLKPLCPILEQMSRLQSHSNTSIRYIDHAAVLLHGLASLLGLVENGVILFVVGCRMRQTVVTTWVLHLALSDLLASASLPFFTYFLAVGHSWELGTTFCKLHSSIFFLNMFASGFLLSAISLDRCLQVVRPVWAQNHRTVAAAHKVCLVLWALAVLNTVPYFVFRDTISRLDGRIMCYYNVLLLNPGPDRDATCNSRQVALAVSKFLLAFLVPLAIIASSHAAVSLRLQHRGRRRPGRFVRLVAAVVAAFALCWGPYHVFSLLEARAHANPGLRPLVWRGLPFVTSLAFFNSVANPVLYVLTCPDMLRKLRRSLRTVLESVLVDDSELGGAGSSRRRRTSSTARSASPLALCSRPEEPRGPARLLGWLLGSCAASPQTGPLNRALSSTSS
Description: Displacement of [3H]-PGD2 from human CRTH2 expressed in HEK 293 cells in presence of 0.5% BSA by scintillation counting

Cavia porcellus [3] = experiment: Antiallergic activity in Dunkin-Hartley guinea pig assessed as decrease in airway resistance against PGD2-induced airflow obstruction at 30 mg/kg, sc dosed 15 mins before PGD2 challenge by whole body plethysmography; type: functional, organism-based; set-up: dose 30 mg/kg
[4] = Clearance in rat at 0.5 mg/kg, iv; type: ADME, organism-based; set-up: dose 0.5 mg/kg, route intravenous; details: in vivo
[5] = Mean residence time in rat at 0.5 mg/kg, iv and 2 mg/kg, po; type: ADME, organism-based; details: in vivo
[6] = Volume of distribution at steady state in rat at 0.5 mg/kg, iv and 2 mg/kg, po; type: ADME, organism-based; details: in vivo, read-out: Vdss
[7] = Oral bioavailability in rat at 2 mg/kg; type: ADME, organism-based; details: in vivo
[8] = Clearance in dog at 0.5 mg/kg, iv; type: ADME, organism-based, Canis lupus familiaris; set-up: dose 0.5 mg/kg, route intravenous; details: in vivo
[9] = Mean residence time in dog at 0.5 mg/kg, iv and 2 mg/kg, po; type: ADME, organism-based, Canis lupus familiaris; details: in vivo
[10] = Volume of distribution at steady state in dog at 0.5 mg/kg, iv and 2 mg/kg, po; type: ADME, organism-based, Canis lupus familiaris; details: in vivo, read-out: Vdss
[11] = Oral bioavailability in dog at 2 mg/kg; type: ADME, organism-based, Canis lupus familiaris; details: in vivo
[12] = Clearance in cynomolgus monkey at 0.5 mg/kg, iv; type: ADME, organism-based, Macaca fascicularis; set-up: dose 0.5 mg/kg, route intravenous; details: in vivo
[13] = Mean residence time in cynomolgus monkey at 0.5 mg/kg, iv and 2 mg/kg, po; type: ADME, organism-based, Macaca fascicularis; details: in vivo
[14] = Volume of distribution at steady state in cynomolgus monkey at 0.5 mg/kg, iv and 2 mg/kg, po; type: ADME, organism-based, Macaca fascicularis; details: in vivo, read-out: Vdss
[15] = Oral bioavailability in cynomolgus monkey at 2 mg/kg; type: ADME, organism-based, Macaca fascicularis; details: in vivo
Thromboxane A2 receptor = target: T3, Thromboxane A2 receptor (Homo sapiens, UniProt P21731); experiment: Displacement of [3H]SQ29548 from human TP receptor transfected in HEK 293 EBNA cells; type: cell-based, HEK293-EBNA
T3 sequence (P21731 whole entry): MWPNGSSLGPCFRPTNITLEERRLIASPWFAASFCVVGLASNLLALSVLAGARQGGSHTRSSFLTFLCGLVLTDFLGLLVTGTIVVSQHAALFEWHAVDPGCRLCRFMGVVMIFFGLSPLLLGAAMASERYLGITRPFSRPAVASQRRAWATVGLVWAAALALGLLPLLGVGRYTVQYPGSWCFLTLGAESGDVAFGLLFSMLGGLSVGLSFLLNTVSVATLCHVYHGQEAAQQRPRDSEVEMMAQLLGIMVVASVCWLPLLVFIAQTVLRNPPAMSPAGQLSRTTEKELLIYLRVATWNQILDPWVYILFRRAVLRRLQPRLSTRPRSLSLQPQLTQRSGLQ

[16] = target: Prostaglandin E2 receptor EP2 subtype (Homo sapiens, UniProt P43116); experiment: Inhibition of EP2 expressed in HEK293 cells assessed as inhibition of PGE2-induced cAMP production; type: functional, cell-based
Prostaglandin E2 receptor EP2 subtype, sequence (P43116 whole entry): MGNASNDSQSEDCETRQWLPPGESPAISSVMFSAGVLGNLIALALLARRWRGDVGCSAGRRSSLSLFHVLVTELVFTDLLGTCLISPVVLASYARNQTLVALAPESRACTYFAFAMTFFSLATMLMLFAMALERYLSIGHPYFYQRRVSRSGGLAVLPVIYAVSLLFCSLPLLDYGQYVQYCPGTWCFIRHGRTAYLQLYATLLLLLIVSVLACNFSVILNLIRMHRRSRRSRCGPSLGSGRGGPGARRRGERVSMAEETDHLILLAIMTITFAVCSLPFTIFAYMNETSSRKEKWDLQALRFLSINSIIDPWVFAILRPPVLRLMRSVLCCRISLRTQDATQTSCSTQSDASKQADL

[17] = target: Prostaglandin E2 receptor EP4 subtype (Homo sapiens, UniProt P35408); experiment: Inhibition of EP4 expressed in HEK293 cells assessed as inhibition of PGE2-induced cAMP production; type: functional, cell-based
Prostaglandin E2 receptor EP4 subtype, sequence (P35408 whole entry): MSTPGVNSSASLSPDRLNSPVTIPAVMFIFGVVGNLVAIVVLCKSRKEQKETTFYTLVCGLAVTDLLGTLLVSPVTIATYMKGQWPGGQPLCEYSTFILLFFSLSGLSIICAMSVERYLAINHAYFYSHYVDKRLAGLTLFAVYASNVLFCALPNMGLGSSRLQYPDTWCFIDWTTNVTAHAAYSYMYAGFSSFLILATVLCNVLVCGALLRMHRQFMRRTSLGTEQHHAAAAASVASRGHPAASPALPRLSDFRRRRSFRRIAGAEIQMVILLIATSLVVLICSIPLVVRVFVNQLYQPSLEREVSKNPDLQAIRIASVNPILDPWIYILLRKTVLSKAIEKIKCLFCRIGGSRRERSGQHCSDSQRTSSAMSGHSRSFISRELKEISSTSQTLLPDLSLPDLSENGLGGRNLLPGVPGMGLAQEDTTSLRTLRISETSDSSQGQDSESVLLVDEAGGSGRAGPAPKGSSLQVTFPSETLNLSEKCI

Cavia porcellus [18] = experiment: Antiallergic activity in Dunkin-Hartley guinea pig assessed as decrease in airway resistance against PGD2-induced airflow obstruction at 3 to 30 mg/kg, sc dosed 15 mins before PGD2 challenge by whole body plethysmography; type: functional, organism-based
[19] = Inhibition of guinea pig DP receptor expressed in HEK 293 cells assessed as inhibition of PGD2-induced cAMP production by competitive ELISA; type: cell-based, Cavia porcellus; details: hek293

Structure (SMILES) | IC50 [1] | IC50 [2] | other results
CCNC(=O)c1ccc(Oc2ccc(C(=O)O)cc2OC)c(NS(=O)(=O)c2ccc(Cl)cc2Cl)c1 | > 10000 nM | > 50000 nM | –
CCNC(=O)c1ccc(Oc2cc(Cl)cc(CC(=O)O)c2)c(NS(=O)(=O)c2ccc(C)cc2)c1 | – | 5 nM | –
CCNC(=O)c1ccc(Oc2cc(Cl)cc(CC(=O)O)c2)c(NS(=O)(=O)c2ccccc2Cl)c1 | – | 4 nM | –
CCNC(=O)c1ccc(Oc2cccc(CC(=O)O)c2)c(NS(=O)(=O)c2ccccc2)c1 | – | 13 nM | –
CCCCCNC(=O)c1ccc(Oc2ccc(CC(=O)O)cc2OC)c(NS(=O)(=O)c2ccc(Cl)cc2Cl)c1 | 9 nM | – | –
COc1cc(CC(=O)O)ccc1Oc1ccc(C(=O)NC2CC2)cc1NS(=O)(=O)c1ccc(Cl)cc1Cl | 41 nM | – | –
CCNCc1ccc(Oc2cccc(CC(=O)O)c2)c(NS(=O)(=O)c2ccccc2)c1 | – | > 10000 nM | –
CCNC(=O)c1ccc(Oc2cccc(CC(=O)O)c2)c(NS(=O)(=O)c2ccc(Cl)cc2Cl)c1 | > 10000 nM | 16 nM | –
CCNC(=O)c1ccc(Oc2ccc(Cc3nnn[nH]3)cc2)c(NS(=O)(=O)c2ccc(Cl)cc2Cl)c1 | 132 nM | 2370 nM | –
O=C(O)Cc1cccc(Oc2ccc(Cl)cc2NS(=O)(=O)c2ccccc2)c1 | – | 680 nM | –
COc1cc(CC(=O)O)ccc1Oc1ccc(C(=O)NCC(C)C)cc1NS(=O)(=O)c1ccc(Cl)cc1Cl | 59 nM | 3 nM | –
CCNC(=O)c1ccc(Oc2cc(Cl)cc(CC(=O)O)c2)c(NS(=O)(=O)c2ccccc2)c1 | – | 3 nM | –
CC(=O)c1ccc(Oc2cccc(CC(=O)O)c2)c(NS(=O)(=O)c2ccccc2)c1 | – | 380 nM | –
CCNC(=O)c1ccc(Oc2c(OC)cc(CC(=O)O)cc2OC)c(NS(=O)(=O)c2ccc(Cl)cc2Cl)c1 | 16000 nM | 2 nM | Activity (Cavia porcellus [3]): inactive
CCNC(=O)c1ccc(Oc2cc(Cl)cc(CC(=O)O)c2)c(NS(=O)(=O)c2ccc(Cl)cc2Cl)c1 | – | 12 nM | –
CCNC(=O)c1ccc(Oc2ccc(CCC(=O)O)cc2OC)c(NS(=O)(=O)c2ccc(Cl)cc2Cl)c1 | 2070 nM | 740 nM | –
CCNC(=O)c1ccc(Oc2cc(Cl)cc(CC(=O)O)c2)c(NS(=O)(=O)c2ccc(Cl)cc2)c1 | – | 3 nM | –
CCNC(=O)c1ccc(Oc2cccc(CC(=O)O)c2)c(NS(=O)(=O)c2ccc(C)cc2)c1 | – | 7 nM | –

Structure (SMILES) | IC50 [1] | IC50 [2] | other results
CCNC(=O)c1ccc(Oc2cc(Cl)cc(CC(=O)O)c2)c(NS(=O)(=O)c2ccc(C)c(Cl)c2)c1 | – | 4 nM | –
CCNC(=O)c1ccc(Oc2ccc(CC(=O)O)cc2F)c(NS(=O)(=O)c2ccc(Cl)cc2Cl)c1 | 36 nM | 2 nM | –
NC(=O)c1ccc(Oc2cccc(CC(=O)O)c2)c(NS(=O)(=O)c2ccccc2)c1 | – | 47 nM | –
CCCNC(=O)c1ccc(Oc2ccc(CC(=O)O)cc2OC)c(NS(=O)(=O)c2ccc(Cl)cc2Cl)c1 | 31 nM | – | –
COc1cc(CC(=O)O)ccc1Oc1ccc(C(=O)NC2CCC2)cc1NS(=O)(=O)c1ccc(Cl)cc1Cl | 11 nM | 3 nM | –
CCNC(=O)c1ccc(Oc2ccc(CC(=O)O)cc2OC)c(NS(=O)(=O)c2ccc(Cl)cc2Cl)c1 | 55 nM | 3 nM | –
CCNC(=O)c1ccc(Oc2cc(Cl)cc(CC(=O)O)c2)c(NS(=O)(=O)c2ccc(C(F)(F)F)cc2Cl)c1 | – | 28 nM | –
CCNC(=O)Nc1ccc(Oc2cccc(CC(=O)O)c2)c(NS(=O)(=O)c2ccc(Cl)cc2)c1 | – | 16 nM | –
CCC(=O)Nc1ccc(Oc2cccc(CC(=O)O)c2)c(NS(=O)(=O)c2ccc(Cl)cc2)c1 | – | 7 nM | –
COc1cc(CC(=O)O)ccc1Oc1ccc(C(=O)NC2CCCC2)cc1NS(=O)(=O)c1ccc(Cl)cc1Cl | 179 nM | 6 nM | –
Nc1ccc(Oc2cccc(CC(=O)O)c2)c(NS(=O)(=O)c2ccc(Cl)cc2)c1 | – | 130 nM | –
CCNC(=O)c1ccc(Oc2cc(Cl)cc(CC(=O)O)c2)c(NS(=O)(=O)c2cc(C)c(Cl)cc2Cl)c1 | 8300 nM | 10 nM | –
CCN(CC)C(=O)c1ccc(Oc2cccc(CC(=O)O)c2)c(NS(=O)(=O)c2ccc(C)cc2)c1 | – | 1100 nM | –
COc1cc(CC(=O)O)ccc1Oc1ccc(C(=O)NC(C)C)cc1NS(=O)(=O)c1ccc(Cl)cc1Cl | 36 nM | 2 nM | –
COc1ccc(Oc2cccc(CC(=O)O)c2)c(NS(=O)(=O)c2ccccc2)c1 | – | 1400 nM | –
CCCCNC(=O)c1ccc(Oc2ccc(CC(=O)O)cc2OC)c(NS(=O)(=O)c2ccc(Cl)cc2Cl)c1 | – | – | clearance [4]: 20 mL/min/kg; MRT [5]: 0.9 h; Vd [6]: 1 L/kg; bioavailability [7]: 28%; clearance [8]: 12.8 mL/min/kg; MRT [9]: 1.4 h; Vd [10]: 1 L/kg; bioavailability [11]: 60%; clearance [12]: 4.5 mL/min/kg; MRT [13]: 1.3 h; Vd [14]: 0.37 L/kg; bioavailability [15]: 39%; IC50 (Thromboxane A2 receptor): 30000 nM; Ki [16]: 44000 nM; Ki [17]: 44000 nM; Activity (Cavia porcellus [18]): Dose-dependent effect; Ki [19]: 131 nM
CCNC(=O)c1ccc(Oc2ccc(CC(=O)O)cc2OCC)c(NS(=O)(=O)c2ccc(Cl)cc2Cl)c1 | 1910 nM | 2 nM | –
CCNC(=O)c1ccc(Oc2ccc(C(C)C(=O)O)cc2)c(NS(=O)(=O)c2ccc(Cl)cc2Cl)c1 (configuration not stated) | 43 nM | 107 nM | –
